Reference: PubChem BioAssay AID743396 (Broad Institute, 2014)
The source made the active and inactive calls.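 How the source made its calls: active means fitted curve reaches a 40% rise in fluorescent cells at or below the top valid dose; inactive means opposite-direction effect, or the rest.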

experiment: compound fluorescence in GFP channel, mTEFS cells – imaging, mTEFS fibroblasts, cherry-pick, artefact control for X-chromosome reactivation project, dose response (AID 743396); settings: mTEFS fibroblasts autofluorescence, GFP-channel imaging, 3 days; at 19.5 µM (top of the series);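 further: raw share of Hoechst-counted cells scored GFP positive without control normalization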

Structure (SMILES) | % fluorescent cells increase
COCCCn1c(N)c(C(=O)Nc2ccccc2)c2nc3ccccc3nc21 | 0.01% (inactive)

same assay, conditions: mTEFS fibroblasts autofluorescence, GFP-channel imaging, 3 days; at 19.5 µM (top of the series); cells pretreated with 5-aza-dC

Structure (SMILES) | % fluorescent cells increase
Cc1cccc(NC(=O)Cn2cnc3c(oc4nc5c(cc43)COC(C)(C)C5)c2=O)c1 | 2.35% (inactive)
CCN(CC)c1ccc(N=Cc2ccc([N+](=O)[O-])o2)cc1 | 0.026% (inactive)
ClC1CCCCC1n1nnc2ccccc21 (stereo not drawn) | 0.006% (inactive)
CC(C)c1cc(C(=O)N/N=C/c2cccnc2)cs1 | -0.004% (inactive)
O=C(COC(=O)c1ccc(NS(=O)(=O)c2cccs2)cc1O)NC1CCCCC1 | 0.547% (inactive)
Cc1ccc(Cl)cc1NC(=O)CCC(=O)O | -0.002% (inactive)
COc1ccccc1N1CCN(C(=O)CN2C(=O)c3cccc4cccc(c34)C2=O)CC1 | 0.023% (inactive)
Cc1ccc(OCCN2CCN(CC(O)Cn3c4ccccc4c4ccccc43)CC2)cc1 (stereo not drawn) | 3.56% (inactive)
O=C(O)c1ccccc1NS(=O)(=O)c1ccc(N/N=C/c2cccc(O)c2O)c([N+](=O)[O-])c1 | 12.8% (inactive)
CCN1C(=O)C(=Cc2cccc(OC)c2Oc2ccc([N+](=O)[O-])cc2[N+](=O)[O-])SC1=S | 1.07% (inactive)
O=C(CCN1CCCCC1)NCC[C@@H]1CC[C@H](NC(=O)C2CCCCC2)[C@H](CO)O1 | 0.045% (inactive)
CC(=O)NC(c1ccc(Cl)cc1)c1c(O)ccc2ccc(O)cc12 (stereo not drawn) | 0.001% (inactive)
C[C@@H]1CN([C@@H](C)CO)S(=O)(=O)c2ccc(C#CC3CC3)cc2O[C@H]1CN(C)Cc1ccc(F)cc1 | 0.107% (inactive)
CC(=O)N(C)C[C@@H]1Oc2ncc(-c3cccnc3)cc2C(=O)N([C@@H](C)CO)C[C@@H]1C | 0.097% (inactive)
CN(C)c1ccc(NC2=C(Cl)C(=O)c3ccccc3C2=O)cc1 | -0.006% (inactive)
N#CC(C#N)=C1C=CC=CN1/C(=C\c1ccco1)C(=O)c1ccc(Br)cc1 | 0% (inactive)
CCC1Oc2ccc(C)cc2N(CC(=O)N2CCCC2)C1=O (stereo not drawn) | 0.001% (inactive)
C[C@H](CO)N1C[C@H](C)[C@H](CN(C)C(=O)Nc2ccc(F)cc2)Oc2ncc(C#Cc3cccc(F)c3)cc2C1=O | -0.166% (inactive)
C=CC[C@@H](CC(=O)N(CCO)Cc1ccccc1)C(=O)NCCOC(=O)[C@@H](CC=C)Cc1ccc(F)cc1 | 0.009% (inactive)
COCCN(C(=S)Nc1cccc(C)c1)C(C)c1cccnc1 (stereo not drawn) | -0.004% (inactive)
CC[N+]1=C(C)C(C)(C)c2cc(C)ccc21 | 0.089% (inactive)
COc1ccc(C2=C(c3ccccc3)OC(OC)c3cc(F)ccc32)cn1 (stereo not drawn) | 0.033% (inactive)
CC1CCCC(NC(=O)CSc2cccc[n+]2[O-])C1C (stereo not drawn) | 0.029% (inactive)
Nc1c(-c2ccccc2)c(CN2CCOCC2)nn1-c1ccc(C(=O)O)cc1 | 0% (inactive)
CCOC(=O)C1=c2/c(=C/c3ccncc3)c(N)c(C(=O)OC)n2C(=O)C(c2ccncc2)S1 (stereo not drawn) | 0.042% (inactive)
Cn1c(=O)c2[nH]c(-c3ccc(S(=O)(=O)O)cc3)nc2n(C)c1=O | 0.085% (inactive)
O=C(c1nc(SCc2ccc([N+](=O)[O-])cc2)n2ccccc12)C(F)(F)F | 0.04% (inactive)

Structure (SMILES) | % fluorescent cells increase
COc1ccc(C(=O)Nc2ccc3oc(-c4cccc(F)c4)nc3c2)cc1OC | -0.003% (inactive)
O=C(OCc1cc(=O)n2c(n1)sc1ccccc12)c1ccc(O)cc1O | -0.007% (inactive)
CCOC(=O)c1ccc(NC(=O)C2(N3C(=O)c4ccccc4C3=O)CCCC2)cc1 | 0.495% (inactive)
CC(=Nc1ccc(Cl)cc1N)c1c(O)cc(C)oc1=O | 0.643% (inactive)
CC1=Nc2ccccc2/C1=C\c1sc(Nc2ccc(C)cc2)nc1O | 0.199% (inactive)
O=C(COC(=O)/C=C/c1cccc(C(F)(F)F)c1)NC(=O)NCc1ccco1 | 0.351% (inactive)
CCOC(=O)C1CCN(c2c(NCc3ccc(C(=O)NC4CCCC4)cc3)c(=O)c2=O)CC1 | 0% (inactive)
Cc1ccc(S(=O)(=O)c2ccc([N+](=O)[O-])cn2)cc1 | 0% (inactive)
CN(C)/C=C1\C=C2C(=O)c3ccccc3N2C1=O | 0.092% (inactive)
Cc1ccc(S(=O)(=O)N2CC3(O)CN(C(=O)OC(C)C)N(C(=O)OC(C)C)CC3(OC(=O)NCc3ccccc3)C2)cc1 (stereo not drawn) | 0.003% (inactive)
COc1ccccc1N=Nc1c(C)[nH]n(-c2ccccc2)c1=O | 0% (inactive)
Oc1c(C(c2ccccc2Cl)N2CCCC2)ccc2cccnc12 (stereo not drawn) | 0% (inactive)
Cc1ccc(S(=O)(=O)NN2C(=O)/C(=C/c3ccccn3)SC2=S)cc1 | 0.042% (inactive)
C[C@@H]1C[C@H]2[C@@H]3CCC4=CC(=O)C=C[C@]4(C)[C@@]3(F)[C@@H](O)C[C@]2(C)[C@H]1C(=O)CO | 0% (inactive)
O=c1c2ccccc2nnn1Cc1ccc2ccccc2c1 | 0.015% (inactive)
O=C1Nc2ccccc2/C1=C/c1ccccc1Cl | 0% (inactive)
CC(C)(C)NC(=O)C(c1c[nH]c2ccccc12)N(C(=O)Cn1nnc(-c2ccc(Cl)cc2)n1)c1ccccc1F (stereo not drawn) | 0.176% (inactive)
COc1ccccc1N(C)c1cc2c(c3c1ccn3C)C1CCC2C1 (stereo not drawn) | 0.033% (inactive)
CCOC(=O)c1cnc(-c2ccc(C(F)(F)F)cn2)[nH]c1=O | 11.4% (inactive)
CC1CC(C)CN(C(=O)C(C)N2CCN(S(=O)(=O)c3ccccc3F)CC2)C1 (stereo not drawn) | 0.338% (inactive)
N/C(=N\c1nc(CSc2nc3ccccc3s2)cc(=O)[nH]1)Nc1ccc(F)cc1 | 2.21% (inactive)
Cc1nn(-c2ccccc2)c(C)c1N | 0% (inactive)
Cc1cc(N)ncc1[N+](=O)[O-] | 0.218% (inactive)
O=[N+]([O-])c1ccc(S(=O)(=O)c2ccccc2)nc1 | -0.004% (inactive)
CCOC(=O)N1CCN(Cc2cc(Cl)c3cccnc3c2O)CC1 | 0% (inactive)
COc1ccc(OCCN2CCC(C(=O)NC(c3ccc(C)cc3)c3ccccn3)CC2)cc1 (stereo not drawn) | 0.021% (inactive)
Cc1ccc(C(=O)c2oc3ccccc3c2NC(=O)c2cc(-c3ccccc3O)n[nH]2)cc1 | 9.74% (inactive)

Structure (SMILES) | % fluorescent cells increase
O=C(N/N=C/c1ccc2cccnc2c1)c1nc2ccccc2c(=O)[nH]1 | 0.022% (inactive)
CCCC(=O)OCCNc1cc(Sc2nccn2C)c2nonc2c1[N+](=O)[O-] | 0% (inactive)
Cc1cc(C(=O)NCc2cc(F)cc3c2OCOC3)nn1C | -0.003% (inactive)
Cc1nnc(SCc2cc(=O)oc3ccc4ccccc4c23)n1Cc1ccccc1 | 0% (inactive)
COC(=O)c1ccc(-n2c(C)cc(C(=O)COC(=O)C3=COCCO3)c2C)cc1 | -0.007% (inactive)
Cc1ccc(N(C)C(=O)C2CCN(S(=O)(=O)c3ccc4c(c3)oc(=O)n4C)CC2)cc1 | -0.007% (inactive)
Nc1c(C(=O)O)cnn1-c1ccc([N+](=O)[O-])cc1 | 0.002% (inactive)
O=C(c1ccc(S(=O)(=O)c2ccc(Cl)cc2)cc1)N1CCOCC1 | 0.948% (inactive)
Cc1cc(NC(=O)c2ccccc2)n(-c2nc3ccccc3[nH]2)n1 | 0.023% (inactive)
CC(C)C#Cc1ccc([C@@H]2[C@@H](CO)N3C(=O)CN(C(=O)c4ccc5c(c4)OCO5)C[C@H]23)cc1 | -0.166% (inactive)
O=C(Nc1cccc(S(=O)(=O)NC2=NCCC2)c1)C1CC(=O)N(c2ccc3c(c2)OCCO3)C1 (stereo not drawn) | -0.007% (inactive)
CC=Cc1ccc2n(c1=O)C[C@@H]1[C@@H](CO)[C@H](C(=O)NCCCN(C)C)[C@H]2N1C(=O)c1ccccc1F (mixture of isomers) | 0.025% (inactive)
CN(C)C=NC(=O)c1cc(C(=O)c2ccc(Cl)cc2Cl)c[nH]1 | 0.032% (inactive)
Cc1ccc(O)c(N=Nc2ccc(S(=O)(=O)N3CCCC3)cc2)c1 | 0% (inactive)
CC(Sc1nnc(-c2ccncc2)n1C)C(=O)Nc1ccc(N2CCOCC2)cc1 (stereo not drawn) | 0% (inactive)
CN(Cc1nccn1C)C(=O)CC1C(=O)NCCN1CC(c1ccccc1)c1ccccc1 (stereo not drawn) | 0.889% (inactive)
N/C(=N\OC(=O)C12CC3CC(CC(C3)C1)C2)c1ccncc1 | -0.004% (inactive)
CC(C)(C)N(Cc1ccccc1)C(=O)COC(=O)c1ccc(N2CCCC2=O)cc1 | -0.007% (inactive)
CC(C)CCN1CCN(Cc2cc3ccccc3[nH]2)CC1CCO (stereo not drawn) | 0% (inactive)
CC1CC(C)CN(C(=O)CSCC(=O)Nc2nc(-c3cccs3)cs2)C1 (stereo not drawn) | 0% (inactive)
CC(=O)C1=NN(c2ccc(Cl)cc2)C(c2ccc3c(c2)OCO3)N(C(C)=O)N1C (stereo not drawn) | -0.011% (inactive)
Oc1ccc(Br)cc1C=Nc1ccc2c3c(cccc13)CC2 | 3.42% (inactive)
CCOC(=O)C1(Cc2ccccc2C)CCCN(C(=O)CSC)C1 (stereo not drawn) | 0% (inactive)
CO[C@@H]1CN(C)C(=O)c2ccc(NC(=O)Nc3cccc(Cl)c3)cc2OC[C@H](C)N(C(=O)Nc2c(C)noc2C)C[C@H]1C | 0.367% (inactive)
COc1ccc(CCCc2nc3ccccc3[nH]2)cc1 | -0.011% (inactive)
Cc1ccc2[nH]c(C(=O)O)c(NC(=O)[C@@H]3C[C@@H]3c3ccccc3)c2c1 | 0.266% (inactive)

same assay, conditions: mTEFS fibroblasts autofluorescence, GFP-channel imaging, 3 days; at 21 µM (top of the series); cells pretreated with 5-aza-dC

Structure (SMILES) | % fluorescent cells increase
Cc1cccc(CN(C)C[C@@H]2Oc3ncc(C#Cc4ccccc4)cc3C(=O)N([C@H](C)CO)C[C@@H]2C)c1 | 0% (inactive)
Cc1noc(C)c1NC(=O)N(C)C[C@@H]1Oc2ccc(NC(=O)C3CC3)cc2CC(=O)N([C@@H](C)CO)C[C@@H]1C | 0.068% (inactive)
